System: 922993-354-T-J3-PDC complex spheroids, viability
Experiment: Anticancer human tumor 922993-354-T-J3-PDC patient-derived endometrial carcinoma cell line growth inhibition [GQUAD]
Settings: for IC50: curve of first compound; for viability, T/C: stronger effect = lower value
Outline: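 Multi-cell-type spheroids of tumor cells with HUVEC and mesenchymal stem cells, treated with drug combinations. Concentrations descend in half-log steps from near clinical Cmax, or from 10 microM where Cmax is unknown; viability read-out.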

[1] = second compound 0.0316 µM, first compound 0.0316 µM
[2] = second compound 0.0316 µM, first compound 0.1 µM
[3] = second compound 0.0316 µM, first compound 0.316 µM
[4] = second compound 0.0316 µM, first compound 1 µM
[5] = second compound 0.0316 µM, first compound 3.16 µM
[6] = second compound 0.0316 µM, first compound 10 µM
[7] = second compound 0.1 µM, first compound 0.0316 µM
[8] = second compound 0.1 µM, first compound 0.1 µM
[9] = second compound 0.1 µM, first compound 0.316 µM
[10] = second compound 0.1 µM, first compound 1 µM
[11] = second compound 0.1 µM, first compound 3.16 µM
[12] = second compound 0.1 µM, first compound 10 µM
[13] = second compound 0.316 µM, first compound 0.0316 µM
[14] = second compound 0.316 µM, first compound 0.1 µM
[15] = second compound 0.316 µM, first compound 0.316 µM
[16] = second compound 0.316 µM, first compound 1 µM
[17] = second compound 0.316 µM, first compound 3.16 µM
[18] = second compound 0.316 µM, first compound 10 µM
[19] = second compound 1 µM, first compound 0.0316 µM
[20] = second compound 1 µM, first compound 0.1 µM
[21] = second compound 1 µM, first compound 0.316 µM
[22] = second compound 1 µM, first compound 1 µM
[23] = second compound 1 µM, first compound 3.16 µM
[24] = second compound 1 µM, first compound 10 µM
[25] = second compound 3.16 µM, first compound 0.0316 µM
[26] = second compound 3.16 µM, first compound 0.1 µM
[27] = second compound 3.16 µM, first compound 0.316 µM
[28] = second compound 3.16 µM, first compound 1 µM
[29] = second compound 3.16 µM, first compound 3.16 µM
[30] = second compound 3.16 µM, first compound 10 µM
[31] = second compound 10 µM, first compound 0.0316 µM
[32] = second compound 10 µM, first compound 0.1 µM
[33] = second compound 10 µM, first compound 0.316 µM
[34] = second compound 10 µM, first compound 1 µM
[35] = second compound 10 µM, first compound 3.16 µM
[36] = second compound 10 µM, first compound 10 µM
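Also: spheroids exposed to compounds for seven days.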
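For viability, T/C in this document: 100% = DMSO vehicle control viability.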

CC(=O)O[C@H]1C(=O)[C@@]2(C)[C@H]([C@H](OC(=O)c3ccccc3)[C@]3(O)C[C@H](OC(=O)[C@H](O)[C@@H](NC(=O)c4ccccc4)c4ccccc4)C(C)=C1C3(C)C)[C@]1(OC(C)=O)CO[C@@H]1C[C@@H]2O + CN(C)c1ccc(Nc2c3ccc(NC(=O)CCN4CCCC4)cc3nc3cc(NC(=O)CCN4CCCC4)ccc23)cc1
IC50 (second compound 0.0316 µM): 7.96 µM | IC50 (second compound 0.1 µM): 8.65 µM | IC50 (second compound 0.316 µM): > 10 µM | IC50 (second compound 1 µM): > 10 µM | IC50 (second compound 3.16 µM): > 10 µM | IC50 (second compound 10 µM): > 10 µM | viability, T/C [1]: 86.5% | viability, T/C [2]: 79% | viability, T/C [3]: 104% | viability, T/C [4]: 104% | viability, T/C [5]: 65.3% | viability, T/C [6]: 46.2% | viability, T/C [7]: 83.4% | viability, T/C [8]: 90.2% | viability, T/C [9]: 113% | viability, T/C [10]: 101% | viability, T/C [11]: 67.3% | viability, T/C [12]: 47.5% | viability, T/C [13]: 73.5% | viability, T/C [14]: 82.3% | viability, T/C [15]: 116% | viability, T/C [16]: 85.6% | viability, T/C [17]: 72% | viability, T/C [18]: 57.5% | viability, T/C [19]: 81.1% | viability, T/C [20]: 99.5% | viability, T/C [21]: 96.4% | viability, T/C [22]: 69.5% | viability, T/C [23]: 80% | viability, T/C [24]: 51.8% | viability, T/C [25]: 93.7% | viability, T/C [26]: 116% | viability, T/C [27]: 103% | viability, T/C [28]: 92.5% | viability, T/C [29]: 82.6% | viability, T/C [30]: 53.5% | viability, T/C [31]: 99.7% | viability, T/C [32]: 122% | viability, T/C [33]: 125% | viability, T/C [34]: 130% | viability, T/C [35]: 77.6% | viability, T/C [36]: 67.1%

COc1cc(C2c3cc4c(cc3C(OC3OC5COC(C)OC5C(O)C3O)C3COC(=O)C23)OCO4)cc(OC)c1O (stereo not given) + CN(C)c1ccc(Nc2c3ccc(NC(=O)CCN4CCCC4)cc3nc3cc(NC(=O)CCN4CCCC4)ccc23)cc1
IC50 (second compound 0.0316 µM): > 10 µM | IC50 (second compound 0.1 µM): 9.49 µM | IC50 (second compound 0.316 µM): 9.2 µM | IC50 (second compound 1 µM): 8.94 µM | IC50 (second compound 3.16 µM): > 10 µM | IC50 (second compound 10 µM): > 10 µM | viability, T/C [1]: 116% | viability, T/C [2]: 90% | viability, T/C [3]: 90.7% | viability, T/C [4]: 88.1% | viability, T/C [5]: 72.5% | viability, T/C [6]: 58.3% | viability, T/C [7]: 109% | viability, T/C [8]: 102% | viability, T/C [9]: 91.3% | viability, T/C [10]: 85.2% | viability, T/C [11]: 81.1% | viability, T/C [12]: 46.3% | viability, T/C [13]: 90.6% | viability, T/C [14]: 101% | viability, T/C [15]: 83.7% | viability, T/C [16]: 79.5% | viability, T/C [17]: 82.9% | viability, T/C [18]: 46.9% | viability, T/C [19]: 79.7% | viability, T/C [20]: 79.7% | viability, T/C [21]: 105% | viability, T/C [22]: 71.5% | viability, T/C [23]: 95.8% | viability, T/C [24]: 46.1% | viability, T/C [25]: 109% | viability, T/C [26]: 99.3% | viability, T/C [27]: 114% | viability, T/C [28]: 98.5% | viability, T/C [29]: 91.8% | viability, T/C [30]: 58.3% | viability, T/C [31]: 94.4% | viability, T/C [32]: 106% | viability, T/C [33]: 111% | viability, T/C [34]: 79.3% | viability, T/C [35]: 106% | viability, T/C [36]: 70.5%

COc1cccc2c1C(=O)c1c(O)c3c(c(O)c1C2=O)CC(O)(C(=O)CO)CC3OC1CC(N)C(O)C(C)O1 (stereo not given) + CN(C)c1ccc(Nc2c3ccc(NC(=O)CCN4CCCC4)cc3nc3cc(NC(=O)CCN4CCCC4)ccc23)cc1
IC50 (second compound 0.0316 µM): 1.66 µM | IC50 (second compound 0.1 µM): 2.79 µM | IC50 (second compound 0.316 µM): 4.11 µM | IC50 (second compound 1 µM): 5.55 µM | IC50 (second compound 3.16 µM): 5.92 µM | IC50 (second compound 10 µM): 6.47 µM | viability, T/C [1]: 91.1% | viability, T/C [2]: 98% | viability, T/C [3]: 108% | viability, T/C [4]: 61.5% | viability, T/C [5]: 45.6% | viability, T/C [6]: 25.1% | viability, T/C [7]: 103% | viability, T/C [8]: 85.5% | viability, T/C [9]: 90.6% | viability, T/C [10]: 87.8% | viability, T/C [11]: 45.4% | viability, T/C [12]: 34.1% | viability, T/C [13]: 94% | viability, T/C [14]: 94.8% | viability, T/C [15]: 67.3% | viability, T/C [16]: 78.5% | viability, T/C [17]: 55.7% | viability, T/C [18]: 31.9% | viability, T/C [19]: 92.4% | viability, T/C [20]: 85.6% | viability, T/C [21]: 76.3% | viability, T/C [22]: 73.9% | viability, T/C [23]: 78.7% | viability, T/C [24]: 20.8% | viability, T/C [25]: 103% | viability, T/C [26]: 98.4% | viability, T/C [27]: 104% | viability, T/C [28]: 86.5% | viability, T/C [29]: 81% | viability, T/C [30]: 26.4% | viability, T/C [31]: 112% | viability, T/C [32]: 120% | viability, T/C [33]: 93.4% | viability, T/C [34]: 97.6% | viability, T/C [35]: 80% | viability, T/C [36]: 32.6%

Nc1ccn(C2OC(CO)C(O)C2(F)F)c(=O)n1 (stereo not given) + CN(C)c1ccc(Nc2c3ccc(NC(=O)CCN4CCCC4)cc3nc3cc(NC(=O)CCN4CCCC4)ccc23)cc1
IC50 (second compound 0.0316 µM): < 0.0316 µM | IC50 (second compound 0.1 µM): < 0.0316 µM | IC50 (second compound 0.316 µM): < 0.0316 µM | IC50 (second compound 1 µM): < 0.0316 µM | IC50 (second compound 3.16 µM): < 0.0316 µM | IC50 (second compound 10 µM): < 0.0316 µM | viability, T/C [1]: 13.6% | viability, T/C [2]: 14.7% | viability, T/C [3]: 11.9% | viability, T/C [4]: 16.6% | viability, T/C [5]: 10.6% | viability, T/C [6]: 12.7% | viability, T/C [7]: 13.4% | viability, T/C [8]: 13.2% | viability, T/C [9]: 12.2% | viability, T/C [10]: 10.8% | viability, T/C [11]: 10.4% | viability, T/C [12]: 11.9% | viability, T/C [13]: 13.9% | viability, T/C [14]: 9.77% | viability, T/C [15]: 10.7% | viability, T/C [16]: 13.1% | viability, T/C [17]: 9.83% | viability, T/C [18]: 11.2% | viability, T/C [19]: 12.5% | viability, T/C [20]: 8.2% | viability, T/C [21]: 12% | viability, T/C [22]: 13% | viability, T/C [23]: 12% | viability, T/C [24]: 11.8% | viability, T/C [25]: 13.8% | viability, T/C [26]: 11.6% | viability, T/C [27]: 16.8% | viability, T/C [28]: 12.2% | viability, T/C [29]: 11.3% | viability, T/C [30]: 13.3% | viability, T/C [31]: 15.8% | viability, T/C [32]: 11.4% | viability, T/C [33]: 11.6% | viability, T/C [34]: 14.4% | viability, T/C [35]: 11% | viability, T/C [36]: 11.3%

O=c1[nH]cc(F)c(=O)[nH]1 + CN(C)c1ccc(Nc2c3ccc(NC(=O)CCN4CCCC4)cc3nc3cc(NC(=O)CCN4CCCC4)ccc23)cc1
IC50 (second compound 0.0316 µM): 5.9 µM | IC50 (second compound 0.1 µM): 4.59 µM | IC50 (second compound 0.316 µM): 3.93 µM | IC50 (second compound 1 µM): 5.83 µM | IC50 (second compound 3.16 µM): 5.93 µM | IC50 (second compound 10 µM): 5.37 µM | viability, T/C [1]: 82.1% | viability, T/C [2]: 84.7% | viability, T/C [3]: 81.8% | viability, T/C [4]: 91.8% | viability, T/C [5]: 83.7% | viability, T/C [6]: 21.4% | viability, T/C [7]: 110% | viability, T/C [8]: 93.9% | viability, T/C [9]: 112% | viability, T/C [10]: 81% | viability, T/C [11]: 69.2% | viability, T/C [12]: 15.7% | viability, T/C [13]: 103% | viability, T/C [14]: 100% | viability, T/C [15]: 91.4% | viability, T/C [16]: 78.1% | viability, T/C [17]: 56.8% | viability, T/C [18]: 22.5% | viability, T/C [19]: 95.8% | viability, T/C [20]: 100% | viability, T/C [21]: 90.6% | viability, T/C [22]: 105% | viability, T/C [23]: 82.1% | viability, T/C [24]: 21.9% | viability, T/C [25]: 90.4% | viability, T/C [26]: 113% | viability, T/C [27]: 105% | viability, T/C [28]: 98.2% | viability, T/C [29]: 87.5% | viability, T/C [30]: 18.8% | viability, T/C [31]: 117% | viability, T/C [32]: 135% | viability, T/C [33]: 121% | viability, T/C [34]: 117% | viability, T/C [35]: 72.9% | viability, T/C [36]: 23.1%

— PubChem BioAssay AID2060489 (Molecular Pharmacology Branch, DTP, NCI, 2025)
